Legend:
KOR = details: no reference given; cited from earlier work
κ-opioid receptor (KOR) = κ-opioid receptor (KOR) (Homo sapiens, UniProt P41145); test: biochemical; format: binding
μ-opioid receptor (MOR) [1] = target: T1, μ-opioid receptor (MOR) (Homo sapiens, UniProt P35372); test: Affinity for the μ-opioid receptor; format: binding; details: mean ± SD; no method described
human KOR [2] = target: T2, human KOR (Homo sapiens, UniProt P41145); test: biochemical; format: biochemical
Target sequence in this assay (P41145 whole entry): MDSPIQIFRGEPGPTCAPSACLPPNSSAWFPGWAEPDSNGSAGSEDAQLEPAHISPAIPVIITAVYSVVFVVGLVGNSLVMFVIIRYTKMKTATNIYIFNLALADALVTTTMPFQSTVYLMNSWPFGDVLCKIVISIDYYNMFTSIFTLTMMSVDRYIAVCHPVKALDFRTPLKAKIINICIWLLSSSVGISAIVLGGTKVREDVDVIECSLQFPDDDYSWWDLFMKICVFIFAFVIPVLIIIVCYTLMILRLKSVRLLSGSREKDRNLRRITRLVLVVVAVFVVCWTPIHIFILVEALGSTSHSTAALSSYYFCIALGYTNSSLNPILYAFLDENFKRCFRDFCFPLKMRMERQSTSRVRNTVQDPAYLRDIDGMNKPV
Target sequence in this assay (P63096 2-354 partner limits assumed): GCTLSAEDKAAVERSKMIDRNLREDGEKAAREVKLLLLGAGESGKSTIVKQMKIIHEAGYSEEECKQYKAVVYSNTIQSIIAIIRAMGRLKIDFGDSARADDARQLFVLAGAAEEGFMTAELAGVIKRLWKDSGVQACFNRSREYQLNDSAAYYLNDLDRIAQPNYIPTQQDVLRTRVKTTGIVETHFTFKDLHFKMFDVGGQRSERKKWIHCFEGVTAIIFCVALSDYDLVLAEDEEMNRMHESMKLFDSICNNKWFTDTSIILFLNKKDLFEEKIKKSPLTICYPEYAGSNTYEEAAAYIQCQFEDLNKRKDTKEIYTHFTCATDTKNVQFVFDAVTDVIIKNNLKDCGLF
Target sequence in this assay (P62873 2-340 partner limits assumed): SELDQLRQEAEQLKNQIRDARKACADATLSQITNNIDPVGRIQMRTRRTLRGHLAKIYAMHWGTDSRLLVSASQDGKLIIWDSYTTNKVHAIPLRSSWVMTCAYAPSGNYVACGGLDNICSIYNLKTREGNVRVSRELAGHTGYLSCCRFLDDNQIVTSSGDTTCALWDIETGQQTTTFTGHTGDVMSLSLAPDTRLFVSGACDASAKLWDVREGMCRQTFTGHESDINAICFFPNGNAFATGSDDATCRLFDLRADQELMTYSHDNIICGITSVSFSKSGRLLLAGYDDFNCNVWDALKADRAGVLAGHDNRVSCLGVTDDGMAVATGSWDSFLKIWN
Target sequence in this assay (P59768 2-68 partner limits assumed): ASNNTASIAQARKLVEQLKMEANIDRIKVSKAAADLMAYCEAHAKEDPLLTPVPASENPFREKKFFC

human KOR [3] = target: T2, human KOR; format: cell-based
Target sequence in this assay (P41145 whole entry): as the sequence (P41145 whole entry) above

[4] = target: mKOR-tdTomato fusion protein in Neuro2A cells (Mus musculus, UniProt P33534); test: KOR internalization in N2A-mKOR-tdT cells, fluorescence microscopy; format: cell-based
Chain of mKOR-tdTomato fusion protein in Neuro2A cells (P33534 whole entry, the tested form may be a part): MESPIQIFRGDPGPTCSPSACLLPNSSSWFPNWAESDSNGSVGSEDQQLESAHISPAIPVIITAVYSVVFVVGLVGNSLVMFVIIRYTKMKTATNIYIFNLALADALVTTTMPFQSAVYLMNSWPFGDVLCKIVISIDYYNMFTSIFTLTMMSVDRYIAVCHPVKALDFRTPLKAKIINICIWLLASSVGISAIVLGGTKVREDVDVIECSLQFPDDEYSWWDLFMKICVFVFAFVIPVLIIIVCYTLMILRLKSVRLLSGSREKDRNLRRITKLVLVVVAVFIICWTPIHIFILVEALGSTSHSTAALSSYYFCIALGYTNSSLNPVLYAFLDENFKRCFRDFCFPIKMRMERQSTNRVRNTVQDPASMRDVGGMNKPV

[5] = cited from earlier work
μ-opioid receptor (MOR) [6] = target: T1, μ-opioid receptor (MOR); details: cited from earlier work

Chain of κ-opioid receptor (KOR) (P41145 whole entry): as the sequence (P41145 whole entry) above
T1 sequence (P35372 whole entry, species assumed): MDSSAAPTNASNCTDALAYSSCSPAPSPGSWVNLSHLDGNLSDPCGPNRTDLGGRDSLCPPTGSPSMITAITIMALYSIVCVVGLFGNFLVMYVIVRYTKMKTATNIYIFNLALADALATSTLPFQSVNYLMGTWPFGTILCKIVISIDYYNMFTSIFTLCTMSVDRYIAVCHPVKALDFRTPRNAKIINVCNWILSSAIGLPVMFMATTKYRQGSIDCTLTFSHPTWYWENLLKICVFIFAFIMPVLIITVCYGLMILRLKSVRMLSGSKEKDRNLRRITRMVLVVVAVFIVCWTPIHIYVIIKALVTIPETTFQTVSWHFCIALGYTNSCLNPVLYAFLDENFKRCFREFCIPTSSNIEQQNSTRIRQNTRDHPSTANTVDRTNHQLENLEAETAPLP

CC(C)[C@@H](CN1CC[C@@](C)(c2cccc(O)c2)[C@@H](C)C1)NC(=O)[C@H]1Cc2ccc(O)cc2CN1 [JDTic]
agonistic activity at KOR (KOR): no agonistic activity

Oc1ccc2c(c1)[C@@]13CCCC[C@@]1(O)[C@@H](C2)N(CC1CCC1)CC3 [butorphanol]
Kd (κ-opioid receptor (KOR)): 0.1 ± 0.02 nM
Ki (κ-opioid receptor (KOR)): 0.1 ± 0.02 nM
affinity for KOR relative to μ-opioid receptor (κ-opioid receptor (KOR)): about twenty-fold
affinity for the μ-opioid receptor (μ-opioid receptor (MOR) [1]): 2.4 ± 1.2 nM
EC50 (human KOR [2]): 2.8 nM
agonist character, G protein activation pathway (human KOR [2]): partial, high affinity agonist
maximal G protein activation relative to salvinorin A (human KOR [2]): about 50%
agonist character, β-arrestin recruitment pathway (human KOR [3]): full agonist
KOR internalization ([4]; butorphanol 0.1 μM to 8 μM, from 5 min): KOR internalization was observed
analgesic potency relative to morphine ([5]; clinical trial for perioperative pain management): ~6 times
potency relative to morphine ([5]; discussion statement, no reference given): 5–7 fold
agonist character at MOR (μ-opioid receptor (MOR) [6]): partial μ-opioid receptor (MOR) agonist

C[C@@]12CCCCC[C@@H](Cc3ccc(O)cc31)[C@@H]2N [dezocine]
Ki (κ-opioid receptor (KOR)): 56 ± 2 nM
effect on butorphanol-induced KOR internalization ([4]; 2 μM dezocine co-incubated with 0.4 μM butorphanol for 30 min): abolish the KOR internalization

COC(=O)[C@@H]1C[C@H](OC(C)=O)C(=O)[C@H]2[C@@]1(C)CC[C@H]1C(=O)O[C@H](c3ccoc3)C[C@]21C [salvinorin A]
agonist character, G protein activation pathway (human KOR [2]): full agonist
concentration giving full activation of the receptor (human KOR [2]): above 1 μM

— PMC7668422 (Anesthesia and analgesia, 2020)
